Source: patent publication US20190119284A1, “ErbB Inhibitors and Uses Thereof” (The Regents of the University of California, priority 2016, published 2019)
Read-outs that look alike come from different tables or passages of the source.

Assays:
[1] = biological target: 2YF/3wt + NRG Ba/F3 cells (HER2YF/HER3wt) (Homo sapiens, UniProt P04626, Y1005F/Y1023F/Y1112F/Y1127F/Y1139F/Y1196F/Y1221F/Y1222F/Y1248F, cells depend on it); assay: Ba/F3 proliferation assay, 2YF/3wt + NRG; format: cell-based
Text: Ba/F3 cells are normally dependent on IL-3 signaling for their proliferation and survival, but can be made dependent on introduced oncogenic signals. We sequentially selected transduced Ba/F3 cells for populations stably expressing HER3 and then HER2. To ensure that all of the proliferative signal could be attributed to HER2/HER3 heterodimers, rather than HER2 homodimers, the 9 C-terminal tyrosines in HER2 were mutated to phenylalanine (HER2YF). We then withdrew IL-3 and supplemented the media with NRG to select for NRG dependent HER2YF/HER3wt cells (2YF/3wt).
For the 2YF/3wt cells, the parental cells were first transduced with HER3 according to the protocol above and were then spun down at 500×g for 5 min and re-suspended in media supplemented with 10 ng/mL IL-3 and 3 μg/mL puromycin (Invitrogen). Cells were maintained in these conditions for seven days, passaging as required. After seven days the cells were spun down, washed with fresh media, and then used for a subsequent round of transduction according to the protocol above with HER2YF virus. […] The cells were maintained in these conditions for seven days, passaging as required. After seven days the cells were spun down, washed with fresh media, and then suspended in media supplemented with 10 ng/mL of NRG. Cells were maintained in these conditions for seven days to select for a NRG dependent population of 2YF/3wt Ba/F3 cells that were then maintained as described above. The same protocol was used for the 2YF-L755S/3wt, 2YF-YVMA/3wt, and 2YF-VC/3wt cell lines using the indicated constructs.
Proliferation Assays. […] The following day media was changed to fresh media that contained either DMSO or the indicated concentration of drug plus NRG (50 ng/mL final concentration) as indicated. […] For all normalized assays, proliferation was normalized to the DMSO control condition. All graphs were plotted in GraphPad Prism 6 and fit with a non-linear regression of the log(inhibitor) vs response with a variable slope where shown. All graphs are averages (+/−standard deviation) of biological triplicates each performed in technical triplicate unless otherwise noted. If only one biological replicate was performed standard deviations were derived from the technical replicates.

Axl+ Ba/F3 cells = biological target: T1, Axl+ Ba/F3 cells (Homo sapiens, UniProt P30530); assay: Ba/F3 proliferation assay, Axl+; format: cell-based
T1 sequence (P30530 1-894): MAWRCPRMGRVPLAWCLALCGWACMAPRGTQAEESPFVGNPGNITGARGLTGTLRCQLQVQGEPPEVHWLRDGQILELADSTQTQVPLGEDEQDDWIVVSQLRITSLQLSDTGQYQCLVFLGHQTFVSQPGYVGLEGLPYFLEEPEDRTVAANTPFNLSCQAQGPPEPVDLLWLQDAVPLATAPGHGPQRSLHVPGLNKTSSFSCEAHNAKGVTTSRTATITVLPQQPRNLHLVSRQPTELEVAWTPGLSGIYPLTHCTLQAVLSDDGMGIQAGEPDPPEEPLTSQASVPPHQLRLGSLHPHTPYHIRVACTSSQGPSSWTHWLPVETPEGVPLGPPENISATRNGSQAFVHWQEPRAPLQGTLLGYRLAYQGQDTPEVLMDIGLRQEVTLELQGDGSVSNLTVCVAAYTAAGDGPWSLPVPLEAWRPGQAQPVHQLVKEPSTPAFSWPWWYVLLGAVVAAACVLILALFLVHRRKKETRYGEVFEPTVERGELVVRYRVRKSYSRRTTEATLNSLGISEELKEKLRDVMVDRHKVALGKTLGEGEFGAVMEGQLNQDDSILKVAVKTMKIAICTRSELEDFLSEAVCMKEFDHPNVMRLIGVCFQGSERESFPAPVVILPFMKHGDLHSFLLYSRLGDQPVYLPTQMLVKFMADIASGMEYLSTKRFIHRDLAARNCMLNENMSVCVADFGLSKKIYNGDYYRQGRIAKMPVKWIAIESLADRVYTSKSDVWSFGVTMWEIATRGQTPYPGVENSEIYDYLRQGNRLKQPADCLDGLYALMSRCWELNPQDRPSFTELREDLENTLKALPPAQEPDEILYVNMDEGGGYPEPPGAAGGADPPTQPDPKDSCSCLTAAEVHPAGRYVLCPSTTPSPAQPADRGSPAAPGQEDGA
Protocol: (§1) To validate the screen and test the effectiveness of counter-screening with either the same 2YF/3wt Ba/F3 cell line or the parental Ba/F3's in the presence of IL-3 to remove cytotoxic primary hits, we first tested a panel of kinase inhibitors with established mechanisms of action.
For Axl+ cells, the transduced cells were spun down at 500×g for 5 min and resuspended in media supplemented with 10 ng/mL IL-3 and 3 μg/mL puromycin (Invitrogen). Cells were maintained in these conditions for 7 days, passaging as required. After 7 days the cells were spun down, washed with fresh media, and then suspended in IL-3 free media. The cells were maintained in these conditions for 2 weeks to select for an IL-3 independent population of Axl+ driven cells.
(§2) Proliferation Assays. For adherent cell lines, cells were plated onto opaque white 96 well plates (Greiner cat #655083) and allowed to adhere overnight. The following day media was changed to fresh media that contained either DMSO or the indicated concentration of drug plus NRG (50 ng/mL final concentration) as indicated. Plates were incubated at 37° C. for 72 h and proliferation was read out using Cell Titer Glo (Promega) according to the manufacturer's protocol. For Ba/F3 cell proliferation, cells, drug dilution, and any necessary growth factors (10 ng/mL IL-3 or 6.25 ng/mL NRG) were combined in a well of a 96 well plate. Plates were incubated at 37° C. for 48 h and proliferation was read out using Cell Titer Glo according to the manufacturer's protocol. For all normalized assays, proliferation was normalized to the DMSO control condition. All graphs were plotted in GraphPad Prism 6 and fit with a non-linear regression of the log(inhibitor) vs response with a variable slope where shown. All graphs are averages (+/−standard deviation) of biological triplicates each performed in technical triplicate unless otherwise noted. If only one biological replicate was performed standard deviations were derived from the technical replicates.

[2] = test system: parental Ba/F3 cells + IL-3; assay: Ba/F3 proliferation assay, Parental + IL-3; format: cell-based; details: Mus musculus, BaF3; Tables 7 and 8; read-out: Ba/F3 line IC50, Parental + IL-3
Protocol: as §1, §2

HER2+/2VE Ba/F3 line = assay: Ba/F3 proliferation assay, HER2+/2VE; format: cell-based; details: Mus musculus, BaF3; Tables 7 and 8
Protocol: as §2

HCC827 = HCC827 cell viability; format: cell-based; details: Homo sapiens, compound at 1 nM, n in the line below, read-out: HCC827 (% viable at 1 nM)
A431 = A431 cell proliferation; format: cell-based; details: Homo sapiens, A-431; Table 8; n in the line below
NCI-H1975 = NCI-H1975 cell proliferation; format: cell-based; details: Homo sapiens, Table 8, n in the line below
[3] = Mouse Liver Microsome stability assay; format: in vitro ADME; details: mouse liver microsomes
[4] = test system: 2YF/3wt + IL-3 Ba/F3 cells; assay: Ba/F3 proliferation assay, 2YF/3wt + IL-3; format: cell-based; details: Mus musculus, BaF3; Table 4; ± S.D., n = 3; 48 h Cell Titer Glo
Protocol: as §1, §2

[5] = test system: HER2YF/HER3E928G (2YF/3EG) Ba/F3 cells; assay: Ba/F3 proliferation assay, 2YF/3EG +/- NRG; format: cell-based; details: + NRG vs no NRG
Text: Consistent with the results in the HER2 overexpressing cell lines, CW-2 cells that harbor a HER3-activating mutation were equally sensitive to compound 3+/−NRG in both proliferation and signaling assays (FIGS. 6A-6B). […] To further evaluate the potential of compound 3 against HER2 mutants within a HER2/HER3 heterodimer we transduced wt HER3 containing Ba/F3 cells with reported HER2 oncogenic mutants in the HER2YF construct.
For HER2YF/3EG Ba/F3 cells were selected according to the protocol for the HER2YF/3TM Ba/F3's with the exception that no NRG was supplemented in the media during IL-3 independent selection.
as §2

[6] = Tables 7 and 8, read-out: Ba/F3 line IC50, HER2YF/HER3 + NRG
[7] = Tables 7 and 8, read-out: Ba/F3 line IC50, Axl+

2YF/3wt + NRG Ba/F3 cells (HER2YF/HER3wt), sequence (P04626 whole entry Y1005F/Y1023F/Y1112F/Y1127F/Y1139F/Y1196F/Y1221F/Y1222F/Y1248F): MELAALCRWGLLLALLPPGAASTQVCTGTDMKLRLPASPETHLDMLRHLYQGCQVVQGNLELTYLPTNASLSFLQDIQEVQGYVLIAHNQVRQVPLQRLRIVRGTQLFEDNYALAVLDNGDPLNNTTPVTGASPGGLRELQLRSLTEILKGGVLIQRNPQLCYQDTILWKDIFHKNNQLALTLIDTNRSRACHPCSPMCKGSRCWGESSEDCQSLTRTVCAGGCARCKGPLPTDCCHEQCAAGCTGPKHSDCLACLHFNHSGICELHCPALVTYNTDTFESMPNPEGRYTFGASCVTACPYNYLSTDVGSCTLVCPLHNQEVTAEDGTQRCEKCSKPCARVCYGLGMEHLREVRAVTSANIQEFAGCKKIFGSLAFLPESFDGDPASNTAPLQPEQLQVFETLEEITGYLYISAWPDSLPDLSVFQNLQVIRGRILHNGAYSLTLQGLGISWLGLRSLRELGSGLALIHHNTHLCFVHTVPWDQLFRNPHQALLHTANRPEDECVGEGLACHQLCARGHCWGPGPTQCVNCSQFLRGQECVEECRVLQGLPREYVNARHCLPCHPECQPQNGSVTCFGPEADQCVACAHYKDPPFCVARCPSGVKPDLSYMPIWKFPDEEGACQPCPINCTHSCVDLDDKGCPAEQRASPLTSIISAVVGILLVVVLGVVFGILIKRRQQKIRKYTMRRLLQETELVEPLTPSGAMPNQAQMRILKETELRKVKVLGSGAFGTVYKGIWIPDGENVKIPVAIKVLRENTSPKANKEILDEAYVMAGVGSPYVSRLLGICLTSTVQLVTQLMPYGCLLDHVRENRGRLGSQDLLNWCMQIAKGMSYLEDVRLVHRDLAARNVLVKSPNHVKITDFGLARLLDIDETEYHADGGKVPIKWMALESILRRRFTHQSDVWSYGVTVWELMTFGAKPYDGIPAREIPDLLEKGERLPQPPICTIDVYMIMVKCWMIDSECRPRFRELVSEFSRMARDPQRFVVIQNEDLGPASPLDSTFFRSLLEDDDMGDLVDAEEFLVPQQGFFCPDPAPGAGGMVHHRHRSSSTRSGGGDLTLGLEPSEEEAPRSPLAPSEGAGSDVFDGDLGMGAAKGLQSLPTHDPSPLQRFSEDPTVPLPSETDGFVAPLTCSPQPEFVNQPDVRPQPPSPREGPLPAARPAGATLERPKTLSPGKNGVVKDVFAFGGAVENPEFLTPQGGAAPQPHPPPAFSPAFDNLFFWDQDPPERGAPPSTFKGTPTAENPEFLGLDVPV

Compound	GI50 [1, 6] [nM]	GI50 (Axl+ Ba/F3 cells; [7]) [nM]	IC50 [2] [nM]	IC50 (HER2+/2VE Ba/F3 line) [nM]	viability at 0.001 µM (HCC827) [%]	IC50 (A431) [nM]	IC50 (NCI-H1975) [nM]	WuXi Microsomal stability (Mouse Extraction Ratio) [3]	GI50 ([1]; Table 4, ± S.D., n = 3, 48 h Cell Titer Glo, read-out: IC50, 2YF/3wt + NRG) [nM]	IC50 [4] [nM]	GI50 (Axl+ Ba/F3 cells; Table 4, ± S.D., n = 3, 48 h Cell Titer Glo, read-out: IC50, Axl) [nM]	reduction of sensitivity on addition of NRG [5] [fold]
CN(C)c1ccc(-c2ccsc2)cc1Nc1ncnc2[nH]nc(-c3cc[nH]n3)c12 [104A]	1.5	844	1600	48.5	29.8 ± 2.7	330 ± 125	720 ± 30	0.87	–	–	–	–
CC(C)(O)CC(=O)NCCn1ccc2ncnc(Nc3ccc(Oc4cccc(C(F)(F)F)c4)c(Cl)c3)c21 [TAK-285, reference compound]	–	–	–	–	–	–	–	–	399 ± 111	> 10000	> 3330	40
COc1ccc(-c2ccccc2)cc1Nc1ncnc2[nH]cc(-c3ccn(C)n3)c12 [8-095]	5	1310	> 3330	46.7	49.2 ± 13.7	1120 ± 59	1740 ± 157	–	–	–	–	–
COc1ccc(-c2ccccc2)cc1Nc1ncnc2[nH]cc(-c3cc[nH]n3)c12 [8-089]	20.8	1160	2440	118	99.9 ± 14.6	914 ± 134	2250 ± 54	–	–	–	–	–
COc1ccc(-c2cccs2)cc1Nc1ncnc2[nH]cc(-c3cc[nH]n3)c12 [8-092]	20.5	1200	> 3330	232	81.6 ± 21.1	762 ± 215	1900 ± 134	–	–	–	–	–
COc1ccc(-c2ccoc2)cc1Nc1ncnc2[nH]cc(-c3cc[nH]n3)c12 [compound 178]	6.8	1170	2540	70.3	–	–	–	0.948	–	–	–	–
